{"source": "patent US20080009546A1", "about": "(Chevron U.S.A. Inc., priority 2005, published 2008)", "key": {"NMDA receptor [1]": {"tested_on": "NMDA receptor", "assay": "[3H]MK-801 binding assay, NMDA receptors in guinea pig brain membranes", "conditions": "for Relative affinity: compared to that of Memantine", "experimental": "Hartley guinea pigs were sacrificed, and their brains were quickly removed and weighed. The brains then were homogenized in 50 mM Tris HCl buffer, pH 7.7, using a Polytron homogenizer. The homogenate was centrifuged at 40,000×g for 15 min, rehomogenized, and centrifuged again. The final pellet was resuspended in Tris-HCl, pH 7.7, at a final concentration of 6.67 mg original wet weight of tissue/ml. […] The samples were then filtered through glass fiber filters on a Tomtec cell harvester. The filters were washed 3 times with 3 ml of cold buffer. Filters were dried overnight and counted next day on a Wallac Betaplate Reader.\nThe binding experiments were conducted as follows. […] For each compound, graphs were prepared containing individual competition curves obtained for that compound. IC50 values and Hill coefficients were calculated using the program Prism. Ki values were calculated using the Chang Prusoff transformation: Ki=IC50/(1+L/Kd)\nwhere L is radioligand concentration and Kd is the binding affinity of the radioligand, as determined previously by saturation analysis. […] In each experiment, one standard compound was simultaneously run on each 96 well plate."}, "[2]": {"tested_on": "primary neurons from rat cerebral cortex", "assay": "NMDA-induced LDH release assay in primary cortical neurons (neuroprotection)", "type": "cell-based", "conditions": "for EC50: two experiments, 300 uM NMDA + 50 μM glycine 15 minutes, LDH after 24 hours, read-out: average EC50 (±SD), NMDA-induced LDH release", "experimental": "The neuroprotective properties of drugs have been studied in vitro, using neurons cultured from cortex, cerebellum or retina. […] Neurotoxicity is determined in this assay by measuring lactate dehydrogenase (LDH), a method which is simple, accurate and reproducible. We conducted pilot studies to test if poly-lysine-coated plates would be suitable as a matrix upon which to plate fetal neurons, compared to astrocyte-coated plates. We also compared the use of growth medium to neurobasal medium supplemented with B27 in the pilot experiments. The concentrations of NMDA (300-500 μM), glycine (10-50 μM), and memantine (10-100 μM) were varied, and optimum concentrations and times determined from these pilot studies were then chosen for the main study. The assay is described below.\nFetal rat neocortical cells were cultured on a mouse astroglial feeder layer. To obtain mouse astroglial cells for the feeder layer, cortices were harvested from 1-day old Swiss Webster mice (Charles River, Hollister, Calif.) according to the procedure described by Rose et al (1993). After dissecting cortices in ice-cold dissecting medium, they were minced and incubated in 0.09% trypsin in media stock for 1 hr, followed by resuspension in growth medium containing 10% equine serum and 10% fetal bovine serum. A single-cell suspension was obtained by triturating through fire-bored glass pipettes, and the resulting cell suspension was plated at a density of 0.5-0.75 hemispheres/24-well plate/9.6 ml, with 0.4 ml/well. Plates were incubated in a humidified incubator at 37° C., 5% CO2. Astroglial cells become confluent in about 2-3 weeks, at which time these cultures are ready to be used as feeder layers upon which neuronal cultures can be plated. Neuronal cells were obtained from gestational Sprague-Dawley rats E16-E18, using a similar dissection procedure. Rat embryos were dissected to obtain cortical tissue, which was plated as a single-cell suspension at a density of 1.4 hemispheres/24-well plate/9.6 ml, with 0.4 ml/well. These cells were plated on the existing astroglial feeder layer, and were incubated at 37° C., 5% CO2. After 5 days in culture, cytosine arabinoside (10 μM) was added to the wells to inhibit glial cell proliferation, and after 24 hours, the medium was replaced with fresh growth medium. Cells were fed with fresh growth medium every 2 days, until the experiments were performed. For coating plates with poly-lysine, we used poly-d-lysine hydrobromide (Sigma Cat # P7280) at a concentration of 0.1 mg/ml to coat each well using a minimum volume of 0.2 ml/well. After coating for 5 minutes, the solution was aspirated and wells were rinsed thoroughly with sterile tissue culture grade water. After drying for 2 hours, plates were ready for use. Neuronal cultures were plated onto poly-lysine-coated plates at the same density as above. For the pilot study, some of the cultures were fed with 1:1 ratio of growth medium: neurobasal medium (GIBCO)+B-27 supplement (2%), while the rest of the cultures were fed with growth medium alone (Losi et al., 2006). For the main study, we used astroglial feeder layers to plate the neuronal cultures, and used a mix (1:1) of growth medium with neurobasal medium+B-27 supplement for feeding the cultures.\nAfter 11-14 days in culture, neuronal cells were confluent and experiments were performed. Cells were washed twice using sterile Locke's buffer (154 mM NaCl, 5.6 mM KCl, 2.3 mM CaCl2, 3.6 mM NaHCO3, 5.5 mM D-glucose, 5 mM HEPES, pH 7.4), and then exposed to the various treatment compounds. […] After 15 minutes, cultures were washed twice and incubated overnight in media stock. After 24 hours, supernatants and lysates were collected to measure LDH activity. LDH activity was measured by the reduction of NAD, which was utilized in the stoichiometric conversion of a tetrazolium dye using a kit (Sigma TOX-7). Supernatants were removed from the wells and centrifuged before LDH measurements. The adherent cells were lysed to obtain total LDH. […]"}, "NMDA receptor [3]": {"tested_on": "NMDA receptor", "assay": "Whole-cell voltage-clamp recordings of NMDA evoked currents in hypocretin neurons (hypothalamic slices)", "type": "cell-based, mouse", "conditions": "bath application, -60 mV, mean±SEM"}, "[4]": {"conditions": "guinea pig brain membrane preparation (Table 29), read-out: Ki"}, "[5]": {"conditions": "NMDA 300 μM + 10 μM glycine, astrocyte-coated rat neurons, GM/NB + B-27 fed, 21 hour incubation"}, "[6]": {"conditions": "NMDA 300 μM + 10 μM glycine, poly-lysine-coated rat neurons, GM/NB + B-27 fed, 40 hour incubation"}, "[7]": {"conditions": "NMDA 300 uM + 50 uM glycine, astrocyte-coated rat neurons, GM/NB + B-27 fed, 24 hour incubation"}, "[8]": {"conditions": "NMDA 300 uM + glycine 50 uM, Plate #4, poly-lysine-coated rat neurons, GM/NB + B-27 fed, 24 hour incubation"}, "[9]": {"conditions": "NMDA 300 uM + glycine 50 uM, Plate #5, astrocyte-coated rat neurons, GM fed, 24 hour incubation"}, "[10]": {"conditions": "NMDA 300 μM - 21 hr, astrocyte-coated rat neurons, GM/NB + B-27 fed, 21 hour incubation"}, "[11]": {"conditions": "NMDA 300 uM - 40 hr, poly-lysine-coated rat neurons, GM/NB + B-27 fed, 40 hour incubation"}, "[12]": {"conditions": "NMDA 500 μM + 10 μM glycine, astrocyte-coated rat neurons, GM/NB + B-27 fed, 21 hour incubation"}, "[13]": {"conditions": "NMDA 500 uM + 10 uM glycine, poly-lysine-coated rat neurons, GM/NB + B-27 fed, 40 hour incubation"}, "[14]": {"conditions": "NMDA 500 μM - 21 hr, astrocyte-coated rat neurons, GM/NB + B-27 fed, 21 hour incubation"}, "[15]": {"conditions": "NMDA 500 uM - 40 hr, poly-lysine-coated rat neurons, GM/NB + B-27 fed, 40 hour incubation"}}, "note": "Read-outs that look alike come from different tables or passages of the source."}
{"compound": "CC12CC3C4CC5(C)CC3C(C1)C(N)(C5)C4C2", "note": "[MDT-51, 4,9-dimethyl-1-aminodiamantane]", "values": [{"measurement": "Relative affinity", "setting": "NMDA receptor [1]", "result": 0.155}, {"measurement": "Ki", "setting": "NMDA receptor [1]; [4]", "result": "4.7 ± 2.4", "unit": "µM"}, {"measurement": "EC50", "setting": "[2]; Rattus norvegicus, Primary neuron", "result": "15.7 ± 9.1", "unit": "µM"}]}
{"compound": "CN[C@H](CC(=O)O)C(=O)O", "note": "[NMDA]", "values": [{"measurement": "Ki", "setting": "NMDA receptor [1]; standard compounds at the NMDA site (Table 27), read-out: Ki", "result": 596, "unit": "µM"}, {"measurement": "% (Control Wash = 100)", "setting": "[2]; [5]", "result": 144, "unit": "%"}, {"measurement": "Secreted LDH (Avg)", "setting": "[2]; [5]", "result": 0.44}, {"measurement": "Secreted/(total + secreted) (Avg)", "setting": "[2]; [5]", "result": 11.95}, {"measurement": "Total LDH (Avg)", "setting": "[2]; [5]", "result": 3.25}, {"measurement": "% (Control Wash = 100)", "setting": "[2]; [6]", "result": 116, "unit": "%"}, {"measurement": "Secreted LDH (Avg)", "setting": "[2]; [6]", "result": 0.39}, {"measurement": "Secreted/(total + secreted) (Avg)", "setting": "[2]; [6]", "result": 13.33}, {"measurement": "Total LDH (Avg)", "setting": "[2]; [6]", "result": 2.56}, {"measurement": "% (Control Wash = 100)", "setting": "[2]; [7]", "result": 271, "unit": "%"}, {"measurement": "Secreted LDH (Avg)", "setting": "[2]; [7]", "result": 0.76}, {"measurement": "Secreted/(total + secreted) (Avg)", "setting": "[2]; [7]", "result": 19.61}, {"measurement": "Total LDH (Avg)", "setting": "[2]; [7]", "result": 3.10}, {"measurement": "% (Control Wash = 100)", "setting": "[2]; [8]", "result": 163, "unit": "%"}, {"measurement": "Secreted LDH (Avg)", "setting": "[2]; [8]", "result": 0.69}, {"measurement": "Secreted/(total + secreted) (Avg)", "setting": "[2]; [8]", "result": 17.79}, {"measurement": "Total LDH (Avg)", "setting": "[2]; [8]", "result": 3.19}, {"measurement": "% (Control Wash = 100)", "setting": "[2]; [9]", "result": 109, "unit": "%"}, {"measurement": "Secreted LDH (Avg)", "setting": "[2]; [9]", "result": 0.20}, {"measurement": "Secreted/(total + secreted) (Avg)", "setting": "[2]; [9]", "result": 6.37}, {"measurement": "Total LDH (Avg)", "setting": "[2]; [9]", "result": 2.90}, {"measurement": "% (Control Wash = 100)", "setting": "[2]; [10]", "result": 166, "unit": "%"}, {"measurement": "Secreted LDH (Avg)", "setting": "[2]; [10]", "result": 0.52}, {"measurement": "Secreted/(total + secreted) (Avg)", "setting": "[2]; [10]", "result": 13.82}, {"measurement": "Total LDH (Avg)", "setting": "[2]; [10]", "result": 3.22}, {"measurement": "% (Control Wash = 100)", "setting": "[2]; [11]", "result": 127, "unit": "%"}, {"measurement": "Secreted LDH (Avg)", "setting": "[2]; [11]", "result": 0.45}, {"measurement": "Secreted/(total + secreted) (Avg)", "setting": "[2]; [11]", "result": 14.55}, {"measurement": "Total LDH (Avg)", "setting": "[2]; [11]", "result": 2.61}, {"measurement": "% (Control Wash = 100)", "setting": "[2]; [12]", "result": 139, "unit": "%"}, {"measurement": "Secreted LDH (Avg)", "setting": "[2]; [12]", "result": 0.51}, {"measurement": "Secreted/(total + secreted) (Avg)", "setting": "[2]; [12]", "result": 11.56}, {"measurement": "Total LDH (Avg)", "setting": "[2]; [12]", "result": 3.91}, {"measurement": "% (Control Wash = 100)", "setting": "[2]; [13]", "result": 114, "unit": "%"}, {"measurement": "Secreted LDH (Avg)", "setting": "[2]; [13]", "result": 0.44}, {"measurement": "Secreted/(total + secreted) (Avg)", "setting": "[2]; [13]", "result": 13.07}, {"measurement": "Total LDH (Avg)", "setting": "[2]; [13]", "result": 2.92}, {"measurement": "% (Control Wash = 100)", "setting": "[2]; [14]", "result": 147, "unit": "%"}, {"measurement": "Secreted LDH (Avg)", "setting": "[2]; [14]", "result": 0.51}, {"measurement": "Secreted/(total + secreted) (Avg)", "setting": "[2]; [14]", "result": 12.23}, {"measurement": "Total LDH (Avg)", "setting": "[2]; [14]", "result": 3.65}, {"measurement": "% (Control Wash = 100)", "setting": "[2]; [15]", "result": 125, "unit": "%"}, {"measurement": "Secreted LDH (Avg)", "setting": "[2]; [15]", "result": 0.48}, {"measurement": "Secreted/(total + secreted) (Avg)", "setting": "[2]; [15]", "result": 14.35}, {"measurement": "Total LDH (Avg)", "setting": "[2]; [15]", "result": 2.91}]}
{"compound": "CC12CC3(N)CC4C1CC1CC2C(N)(C3)C4(C)C1", "note": "(centres unmarked) [MDT-9, 1,6-dimethyl-2,4-diaminodiamantane]", "values": [{"measurement": "Relative affinity", "setting": "NMDA receptor [1]", "result": 0.032}, {"measurement": "Ki", "setting": "NMDA receptor [1]; [4]", "result": "22.5 ± 0.9", "unit": "µM"}, {"measurement": "inhibition of the peak amplitude of NMDA evoked currents", "setting": "NMDA receptor [3]; 10 μM", "result": "13.2±9", "unit": "%"}, {"measurement": "inhibition of the peak amplitude of NMDA evoked currents", "setting": "NMDA receptor [3]; 100 μM", "result": "15.2±4.8", "unit": "%"}]}
{"compound": "NC12CC3C4CC5CC3C(C1)C(C5)C4C2", "note": "[MDT-3]", "values": [{"measurement": "Relative affinity", "setting": "NMDA receptor [1]", "result": 0.021}, {"measurement": "Ki", "setting": "NMDA receptor [1]; [4]", "result": "34.6 ± 3.7", "unit": "µM"}, {"measurement": "inhibition of the peak amplitude of NMDA evoked currents", "setting": "NMDA receptor [3]; 10 μM", "result": "did not produce inhibition"}, {"measurement": "inhibition of the peak amplitude of NMDA evoked currents", "setting": "NMDA receptor [3]; 100 μM", "result": "did not produce inhibition"}]}
{"compound": "2-aminotriamantane [MDT-50]", "values": [{"measurement": "Ki", "setting": "NMDA receptor [1]; [3H]MK-801 (1 nM), guinea pig brain membrane preparation, read-out: Ki (binding affinity)", "result": 19.1, "unit": "µM"}, {"measurement": "Relative affinity", "setting": "NMDA receptor [1]", "result": 0.038}, {"measurement": "EC50", "setting": "[2]", "result": "107 ± 88.3", "unit": "µM"}]}
